Experimental data from US5939387A, “Method of treating insulin resistance” (Eli Lilly and Company, priority 1996, dated 1999).
*: point of attachment. p‑methylhippuroyl = Cc1ccc(C(=O)NCC(=O)*)cc1

Key:
[1] = system: Zucker Diabetic Fatty (ZDF/Gmi-fa/fa) male rats; assay: ZDF Male Rat Assay; format: in vivo; conditions: for Total Body Mass, final weight / Epididymal Fat weight / Lean Mass, final weight: ZDF rats; for Total Body Mass, final weight: mean of 8; for Epididymal Fat weight / Lean Mass, final weight: 6 to 14 weeks of age
Excerpt: A growth hormone releasing agent is continuously administered to Zucker diabetic male rats subcutaneously by use of an "Alzet" mini osmotic pump. The treatment was started at approximately 6 weeks of age and continued for approximately 6-8 weeks. The experiment was designed to allow the study of changes in the typical plasma glucose and insulin level profiles with the progression of the diabetic disease state.
Zucker Diabetic Fatty (ZDF/Gmi™-fa/fa) male rats were obtained from Genetic Models Inc. (Indianapolis, Ind.). The rats were maintained on Purina Formula 5008 rat chow (Purina Mills, Inc., St. Louis, Mo.) and housed in a light controlled room of alternating 12 hour cycles of light and dark. Rats were singly housed and given free access to food and water. At 5 weeks of age, an oral glucose tolerance test (OGTT: 16 hr fast, oral glucose concentration at 2.5 grams/kg body weight; Butler dextrose solution 50%, lot # 3342, Ft. Collins, Colo.; time points at 0, 30, 60, and 120 minutes) was given to each rat and their plasma assayed for glucose and insulin levels. At 6 weeks of age Alzet minipumps, containing a 1.5 inch polyethylene tube extensions (Model 2001, lot # 040401, 1.0 μl/hr, 7 days; Alza Corporation, Palo Alto, Calif.) were implanted subcutaneously. Animals were anesthetized with isoflurane at approximately 2-3% in oxygen. Each rat was shaved and a Povidone Iodine scrub was used at the site of implantation. A small incision was made above and just posterior to the shoulder. A small pocket was made and the pump placed in so the delivery port was away from the incision. The incision was then closed with wound clips and the rat observed and kept warm until awake. At the end of 7 days the pumps were removed from the rat and a new pump implanted subcutaneously as previously described. Pumps contained vehicle (PBS) or a growth hormone releasing agent (8 rats/group).
The GH releasing agent was prepared at concentrations of 625 and 62.5 μg/mL and loaded into Alzet pumps using sterile techniques. Body weight and food consumption were monitored once a week. Rats were bled from the tail for plasma glucose, insulin, and growth hormone levels weekly. One week prior to sacrificing the rats, an I.P. injection of tetracycline was given to each rat and then again the day before sacrificing (20 mg/mL; 0.5 mL/animal) to determine bone growth.
Assays: Plasma glucose concentrations were determined by the glucose hexokinase method (IL Test GLucose, lot # I1040502; Instrumentation Laboratory Company, Lexington, Mass.) with a model 2000 Monarch (Instrumentation Laboratory Company, Lexington, Mass.). Insulin was determined with a Coat-a-Count kit (Diagnostic Products Corporation, Los Angeles, Calif.) using a rat insulin standard (Lilly Research Laboratories, Indianapolis, Ind.). Glucagon was assayed with a double antibody procedure using guinea pig anti-glucagon (Catalog no. 1032; Linco Research, St. Louis, Mo.), goat anti-guinea pig (lot # T67-7GZ-237); Lilly Research Laboratories, Indianapolis, Ind.) and ^125 I-glucagon (DuPont New England Nuclear, Wilmington, Del.). Growth hormone was assayed using rat growth hormone standard (purchased from Parlow, Torrance Calif.; rGH-RP-2, lot AFP-3190B), anti rGH (purchased from Parlow, Torrance Calif.; rGH-s-r, lot AFP411S), ^125 I-rGH (Corning-Hazelton, Vienna, Va.) and protein A IGSL100 (Enzyme Center, Malden, Mass.).

[2] = system: Male Fischer 344 rats 26 months of age; assay: Aged Rat Study (oral glucose tolerance test); format: in vivo; conditions: 2 μg/kg sc daily for 6 weeks
Description: Animals: Male Fischer 344 rats 26 months of age were randomly assigned to three treatment groups (8 animals per group). Animals were housed in individual cages in a temperature and humidity-controlled environment and exposed to 12 h light/12 h dark lighting schedule (lights on at 0600 h). Animals were fed ad libitum on a daily basis.
Treatments: Animals received daily injection (sc., 0.5 ml at 0700 h) of vehicle; active compound, 2 μg/kg body weight for six weeks. At the end of the treatment period and one day prior to testing, food was removed and animals were fasted for 16 hours. Glucose tolerance test was initiated at 0700 h in conscious and freely moving rats. Blood was collected by tail clipping method. A control blood sample (0.2 mL) was collected before ingesting glucose (2.5 g/kg body weight). Subsequent blood samples were collected at 30, 60, 90 and 120 min. after glucose ingestion. Blood was collected on ice and glucose concentrations were determined by bichromatic analysis using the IL Monarch Chemistry Systems (Cat. # 35199, Instrumentation Laboratory, Mass.). Plasma was separated and samples were kept frozen (-20° C.) until assay for insulin concentrations using double antibody radioimmuonoassay. […]
Area under the response curve was calculated using the trapezoidal method and data were analyzed by ANOVA with Duncan's multiple range test.

[3] = age 6 weeks, 0.001 μg/min continuous infusion
[4] = age 6 weeks, 0.01 μg/min continuous infusion
[5] = age 7 weeks, 0.001 μg/min continuous infusion
[6] = age 7 weeks, 0.01 μg/min continuous infusion
[7] = age 8 weeks, 0.001 μg/min continuous infusion
[8] = age 8 weeks, 0.01 μg/min continuous infusion
[9] = age 9 weeks, 0.001 μg/min continuous infusion
[10] = age 9 weeks, 0.01 μg/min continuous infusion
[11] = age 10 weeks, 0.001 μg/min continuous infusion
[12] = age 10 weeks, 0.01 μg/min continuous infusion
[13] = age 11 weeks, 0.001 μg/min continuous infusion
[14] = age 11 weeks, 0.01 μg/min continuous infusion
[15] = age 12 weeks, 0.001 μg/min continuous infusion
[16] = age 12 weeks, 0.01 μg/min continuous infusion
[17] = age 13 weeks, 0.001 μg/min continuous infusion
[18] = age 13 weeks, 0.01 μg/min continuous infusion

With “p-methyl hippuroyl Leu(27) (1-44)OH hGHRH ({p‑methylhippuroyl}-YADAIFTNSYRKVLGQLSARKLLQDILSRQQGESNQERGARARL-OH) [GHRH Analog, functional analog of GHRH disclosed in EP 511 003, agent capable of stimulating growth hormone release]” the “Total Body Mass, final weight” value ([1]; 0.001 μg/min continuous sc infusion from 6 to 14 weeks of age) was 327.06 g, the “Epididymal Fat weight” value ([1]; 0.001 μg/min infusion) was 0.25 g and the “Lean Mass, final weight” value ([1]; 0.001 μg/min infusion) was 327.06 g. For the same substance, the “Total Body Mass, final weight” value ([1]; 0.01 μg/min continuous sc infusion from 6 to 14 weeks of age) was 388.16 g, the “Epididymal Fat weight” value ([1]; 0.01 μg/min infusion) was 0.33 g and the “Lean Mass, final weight” value ([1]; 0.01 μg/min infusion) was 388.16 g. For the same substance, the “Mean Plasma Glucose” value [1, 3] was 139.99 mg/dL, the “Mean Plasma Insulin” value [1, 3] was 9.81 ng/mL and the “Mean Plasma Glucose” value [1, 4] was 139.86 mg/dL. The “Mean Plasma Insulin” value [1, 4] was 11.21 ng/mL, the “Mean Plasma Glucose” value [1, 5] was 155.34 mg/dL and the “Mean Plasma Insulin” value [1, 5] was 23.91 ng/mL. The “Mean Plasma Glucose” value [1, 6] was 148.68 mg/dL, the “Mean Plasma Insulin” value [1, 6] was 24.76 ng/mL and the “Mean Plasma Glucose” value [1, 7] was 183.41 mg/dL. For the same substance, the “Mean Plasma Insulin” value [1, 7] was 27.33 ng/mL, the “Mean Plasma Glucose” value [1, 8] was 165.01 mg/dL and the “Mean Plasma Insulin” value [1, 8] was 26.81 ng/mL. For the same substance, the “Mean Plasma Glucose” value [1, 9] was 331.91 mg/dL, the “Mean Plasma Insulin” value [1, 9] was 21.11 ng/mL and the “Mean Plasma Glucose” value [1, 10] was 215.49 mg/dL. For the same substance, the “Mean Plasma Insulin” value [1, 10] was 24.23 ng/mL, the “Mean Plasma Glucose” value [1, 11] was 389.18 mg/dL and the “Mean Plasma Insulin” value [1, 11] was 20.18 ng/mL. For the same substance, the “Mean Plasma Glucose” value [1, 12] was 235.91 mg/dL, the “Mean Plasma Insulin” value [1, 12] was 27.85 ng/mL and the “Mean Plasma Glucose” value [1, 13] was 392.65 mg/dL. The “Mean Plasma Insulin” value [1, 13] was 20.98 ng/mL, the “Mean Plasma Glucose” value [1, 14] was 232.89 mg/dL and the “Mean Plasma Insulin” value [1, 14] was 30.05 ng/mL. The “Mean Plasma Glucose” value [1, 15] was 496.75 mg/dL, the “Mean Plasma Insulin” value [1, 15] was 21.48 ng/mL and the “Mean Plasma Glucose” value [1, 16] was 317.11 mg/dL. For the same substance, the “Mean Plasma Insulin” value [1, 16] was 36.45 ng/mL, the “Mean Plasma Glucose” value [1, 17] was 446.03 mg/dL and the “Mean Plasma Insulin” value [1, 17] was 16.29 ng/mL. The “Mean Plasma Glucose” value [1, 18] was 248.28 mg/dL, the “Mean Plasma Insulin” value [1, 18] was 29.92 ng/mL and the “Mean Plasma Glucose” value ([1]; age 14 weeks, 0.001 μg/min continuous infusion) was 461.40 mg/dL. The “Mean Plasma Glucose” value ([1]; age 14 weeks, 0.01 μg/min continuous infusion) was 229.36 mg/dL, the “Plasma Glucose, oral glucose tolerance test” value ([2]; time 0 min) was 104.2 mg/dL and the “Plasma Insulin, oral glucose tolerance test” value ([2]; time 0 min) was 1.26 ng/mL. The “Plasma Glucose, oral glucose tolerance test” value ([2]; time 30 min) was 148.4 mg/dL, the “Plasma Insulin, oral glucose tolerance test” value ([2]; time 30 min) was 1.64 ng/mL and the “Plasma Glucose, oral glucose tolerance test” value ([2]; time 60 min) was 154.8 mg/dL. For the same substance, the “Plasma Insulin, oral glucose tolerance test” value ([2]; time 60 min) was 1.92 ng/mL, the “Plasma Glucose, oral glucose tolerance test” value ([2]; time 120 min) was 148.1 mg/dL and the “Plasma Insulin, oral glucose tolerance test” value ([2]; time 120 min) was 1.41 ng/mL. The “AUC, area under the plasma glucose vs. time curve” value ([2]; trapezoidal method) was 16,833.80 mg. min/dL and the “AUC, area under the plasma insulin vs. time curve” value ([2]; trapezoidal method) was 196.25 ng·min/mL.
